Laboratory results: patent US20220409578A1, “FUNCTIONALIZED 1,3-BENZENE DIOLS AND THEIR METHOD OF USE FOR THE TREATMENT OF RADIATION DERMATITIS AND OTHER SKIN DISORDERS” (KANNALIFE SCIENCES, INC., priority 2019, published 2022)

Legend:
Format in all cases: cell-based
[1] = system: human dermal microvascular endothelial cells; conditions: 6 h
Method: Dermal Microvascular endothelial cells of human origin were cultured in vitro using standard conditions (37° C., 95% v/v air, 5% v/v CO2). Human cells were selected as relevant to cell types within skin tissues for this development program. Cell culture methods are commonly used in non-clinical studies conducted on pharmaceutical products. […] Cells were cultured until the third and fourth passage and then acclimated for 24 hours before Nickel induction and dosing procedures. Cell treatment groups were identified using appropriate 96-well plates. The test and control articles were administered to medium containing 1 mM NiSO4 in triplicates. The negative control group received vehicle-only (0.1% v/v final) dose. A fixed 0.1 μL/well from 1000× stock dose volume was administered to 100 μL of media to each cell culture well on Day 2 and incubated for 6 hours at 37 degrees. These cell cultures were also utilized to determine the concentrations of test agent that were non-toxic after 24 hours of incubation. Cell Viability assays were conducted using MTS reduction assays (Promega) diluted 1:5 in DMEM+10% FBS media as specified by the manufacturer. Absorbance was measured at 490 nm using plate reader and cell viability was calculated as a percent of control. This assay was done along with all culture systems that were utilized to study cytokine release. […]

IL-8 = IL-8 release, nickel-induced allergy in human dermal microvascular endothelial cells (ELISA); conditions: co-treatment with NiSO4, HDMECs
Method: Dermal Microvascular endothelial cells of human origin were cultured in vitro using standard conditions (37° C., 95% v/v air, 5% v/v CO2). Human cells were selected as relevant to cell types within skin tissues for this development program. Cell culture methods are commonly used in non-clinical studies conducted on pharmaceutical products. […] Cells were cultured until the third and fourth passage and then acclimated for 24 hours before Nickel induction and dosing procedures. Cell treatment groups were identified using appropriate 96-well plates. The test and control articles were administered to medium containing 1 mM NiSO4 in triplicates. The negative control group received vehicle-only (0.1% v/v final) dose. A fixed 0.1 μL/well from 1000× stock dose volume was administered to 100 μL of media to each cell culture well on Day 2 and incubated for 6 hours at 37 degrees. These cell cultures were also utilized to determine the concentrations of test agent that were non-toxic after 24 hours of incubation.
Assay for Interleukin-8: Test material was applied in vitro for the ability to inhibit pro-inflammatory (IL-8) cytokine secretion by cultured HDMECs co-treated with Nickel (NiSO4). Clobetasol propionate was tested as positive control material for anti-inflammatory activity. The pro-inflammatory cytokine (IL-8) was quantified by enzyme-linked immunosorbent assay (ELISA) after inflammatory induction and incubation with test and control materials. Interleukin-8 levels in cell culture medium are markers of inflammation signaling by endothelial cells present in skin microvascular tissue in response to irritation. Interleukin-8 (IL-8) levels were assessed using BD Biosciences OptEIA™ Human IL-8 ELISA Set kit (Cat. No. 555244) and Reagent Set B (Cat. No. 550534) according to the manufacture's specifications. Absorbance was measured at 450 nm using plate reader and interleukin-8 levels were calculated from a standard curve.

[2] = system: human epidermal keratinocytes; conditions: 24 h
Method: Normal human epidermal keratinocytes cultures were utilized to measure the release of proinflammatory cytokines and chemokines. Primary epidermal keratinocytes from neonatal donors were used from human origin and purchased from Thermo-Fisher (Cat No. A13401). […] Cells were cultured until the second passage and then acclimated for 48 hours more before UV-B irradiation. Dosing procedures and cell groups were identified using appropriate cell culture 24-well plates. The cell culture incubator was set at 5% v/v CO2 with temperature and humidity maintained at 36-38° C. and 40-70%, respectively. The test and control substances were administered to HKGS-depleted medium in triplicates. A fixed 5 μL/well from 100× stock dose volume was administered to 500 μL of media to each cell culture well on Day 3 and pre-incubated for 6 hours and then post-UVB incubated for 18 hours. The same procedure was utilized to determine non-toxic concentrations of 1,3-benzene diols after 24 hours of treatment. Cell Viability assays were conducted using MTS reduction assays (Promega) diluted 1:5 in DMEM+10% FBS media as specified by the manufacturer. Absorbance was measured at 490 nm using plate reader and cell viability was calculated as a percent of control. This assay was done along with all culture systems that were utilized to study cytokine release. […]

[3] = system: human dermal fibroblast cells; conditions: 24 h
Method: Primary dermal fibroblasts cells of human origin were cultured in vitro using standard conditions (37° C., 95% v/v air, 5% v/v CO2). Primary dermal fibroblasts from neonatal donor were used from human origin and purchased from Thermo-Fisher (Cat No. […]). […] Cells were cultured until the second passage and then acclimated for 48 hours before UVA irradiation and dosing procedures conducted in 24-well plates. On Day 3, test materials were dosed to cell culture media and pre-incubated for 6 hours. Treatment media was then removed and replaced with phosphate buffer saline (PBS) without test materials and Ultraviolet-A (UV-A) was irradiated at 12.5 J/cm^2 using FS-20/T-12 bulbs (315-400 nm). After UV-A irradiation, PBS was replaced with fresh DMEM medium with test materials and incubated for 18 hours at standard culture conditions. After incubation, culture medium supernatants were harvested and used to measure human IL-6 levels by ELISA method. In vitro dosing route was selected to test the activity of KLS-13022 after pro-inflammatory inducer UV-A irradiation, since isolated human cell culture provide direct activity indication and specific cell-type effects. Human cells were selected as relevant to cell types within skin tissues for this development program. […] Absorbance was measured at 490 nm using plate reader and cell viability was calculated as a percent of control. […]

Q: With `C=C(C)[C@@H]1CCC(C)=C[C@H]1c1c(O)cc(CC2CN(C(=O)OCC)C2)cc1O` [KLS-13022, ethyl 3-(3,5-dihydroxy-4-((1R,6R)-3-methyl-6-(prop-1-en-2-yl)cyclohex-2-enyl)benzyl)azetidine-1-carboxylate] as the compound, how does the non-toxic concentration range [1] read?
A: Its non-toxic concentration range is no more than 12 µM.

Q: And the IC50 (IL-8; Homo sapiens, Endothelial cell, read-out: IC50 of IL-8 inhibition)?
A: The IC50 was 300 nM.

Q: What about the “maximum IL-8 inhibition” value (IL-8) of the same compound?
A: Its value is 78%.

Q: What about the non-toxic concentration range [2] of the same compound?
A: The non-toxic concentration range was no more than 10 µM.

Q: And the non-toxic concentration range [3]?
A: Its non-toxic concentration range is no more than 1.67 µM.

Q: What about the toxic concentration [3] of the same compound?
A: Its toxic concentration is 3.3 µM.
